A short description of series [1]: Absorbance and fluorescence emission spectra (SpectraMax M2). In kind it is physicochemical. As to conditions: MK library, Table 5. The procedure, abridged:
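Spectroscopic data, including quantum yields, were recorded with a SpectraMax M2 instrument and analysed in GraphPrism.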

Series [2] in a line: Quantum yield measurements versus Acridine Yellow in EtOH. In kind it is physicochemical. As to conditions: MK library, Table 5; excitation 460 nm. The procedure, abridged: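 Emission areas integrated over 510–700 nm were compared with Acridine Yellow in ethanol (Φ=0.47), all excited at 460 nm. The comparative equation was normalized to excitation-wavelength absorbance and solvent refractive index.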

The results in this text go back to US9513294B2, “Megastokes amino-triazolyl-BODIPY compounds and applications to live neuron staining and human serum albumin FA1 drug site probing” (National University of Singapore, priority 2012, dated 2016).

Structures are written as SMILES.

For the molecule `CCCc1cn(-c2ccc3n2[B-](F)(F)[N+]2=C(NCc4ccccc4C)C=CC2=C3c2ccc(N)cc2)nn1` [MK101-48], in series [1], the “λmax Absorp.” value is given as 473 nm and the “λmax Emission” value is reported as 562 nm. The “φ (quantum yield)” value in series [2] is listed as 2.92%.

For the molecule `CCCCCC(O)c1cn(-c2ccc3n2[B-](F)(F)[N+]2=C(NCc4ccccc4C)C=CC2=C3c2ccc(N)cc2)nn1` (stereo not drawn) [MK101-69], in series [1], the “λmax Absorp.” value amounted to 475 nm and the “λmax Emission” value was 563 nm. Also, in series [2], the “φ (quantum yield)” value was 2.40%.

As to `Cc1ccccc1CNC1=[N+]2C(=C(c3ccc(N)cc3)c3ccc(-n4cc(CO)nn4)n3[B-]2(F)F)C=C1` [MK101-70], in series [1], the “λmax Absorp.” value amounted to 474 nm and the “λmax Emission” value was 565 nm. The “φ (quantum yield)” value in series [2] is on record as 1.92%.

Regarding `CCCC(C)c1cn(-c2ccc3n2[B-](F)(F)[N+]2=C(NCc4ccccc4OCC)C=CC2=C3c2ccc(N)cc2)nn1` (stereo not drawn) [MK103-3], in series [1], the “λmax Absorp.” value stood at 474 nm and the “λmax Emission” value is 564 nm. Moreover, the “φ (quantum yield)” value in series [2] was 1.71%.

With `CCOc1ccccc1CNC1=[N+]2C(=C(c3ccc(N)cc3)c3ccc(-n4cc(C5CC5)nn4)n3[B-]2(F)F)C=C1` [MK103-4], in series [1], the “λmax Absorp.” value is 473 nm and the “λmax Emission” value is given as 563 nm. Further, the “φ (quantum yield)” value in series [2] amounted to 1.68%.

Take `CCOc1ccccc1CNC1=[N+]2C(=C(c3ccc(N)cc3)c3ccc(-n4cc(C5CCCC5)nn4)n3[B-]2(F)F)C=C1` [MK103-5]: in series [1], the “λmax Absorp.” value is given as 473 nm and the “λmax Emission” value is given as 564 nm. Further, the “φ (quantum yield)” value in series [2] stood at 2.01%.

For the molecule `CCOc1ccccc1CNC1=[N+]2C(=C(c3ccc(N)cc3)c3ccc(-n4cc(CC5CCCCC5)nn4)n3[B-]2(F)F)C=C1` [MK103-8], in series [1], the “λmax Absorp.” value is reported as 473 nm and the “λmax Emission” value stood at 563 nm. Further, the “φ (quantum yield)” value in series [2] turned out to be 1.64%.

For the molecule `CCOc1ccccc1CNC1=[N+]2C(=C(c3ccc(N)cc3)c3ccc(-n4cc(CN(C)Cc5ccccc5)nn4)n3[B-]2(F)F)C=C1` [MK103-18], in series [1], the “λmax Absorp.” value was found to be 473 nm and the “λmax Emission” value is given as 565 nm. In series [2], the “φ (quantum yield)” value was 1.19%.

`CCOc1ccccc1CNC1=[N+]2C(=C(c3ccc(N)cc3)c3ccc(-n4cc(CCc5ccccc5)nn4)n3[B-]2(F)F)C=C1` [MK103-19]: in series [1], the “λmax Absorp.” value is 472 nm and the “λmax Emission” value is 568 nm. In addition, in series [2], the “φ (quantum yield)” value worked out at 1.96%.

Take `CCOc1ccccc1CNC1=[N+]2C(=C(c3ccc(N)cc3)c3ccc(-n4cc(CC(C)C)nn4)n3[B-]2(F)F)C=C1` [MK103-43]: in series [1], the “λmax Absorp.” value worked out at 474 nm and the “λmax Emission” value came to 563 nm. In series [2], the “φ (quantum yield)” value is given as 1.30%.

Take `CCCc1cn(-c2ccc3n2[B-](F)(F)[N+]2=C(NCc4ccccc4OCC)C=CC2=C3c2ccc(N)cc2)nn1` [MK103-48]: in series [1], the “λmax Absorp.” value is 473 nm and the “λmax Emission” value worked out at 563 nm. The “φ (quantum yield)” value in series [2] is 1.91%.

As to `CCCCCC(O)c1cn(-c2ccc3n2[B-](F)(F)[N+]2=C(NCc4ccccc4OCC)C=CC2=C3c2ccc(N)cc2)nn1` (stereo not drawn) [MK103-69], in series [1], the “λmax Absorp.” value was 474 nm and the “λmax Emission” value amounted to 563 nm. Further, the “φ (quantum yield)” value in series [2] is reported as 2.28%.

On to `CCOc1ccccc1CNC1=[N+]2C(=C(c3ccc(N)cc3)c3ccc(-n4cc(CO)nn4)n3[B-]2(F)F)C=C1` [MK103-70], for which, in series [1], the “λmax Absorp.” value amounted to 472 nm and the “λmax Emission” value was found to be 562 nm. For the same molecule, the “φ (quantum yield)” value in series [2] turned out to be 1.93%.

For `CCCC(C)c1cn(-c2ccc3n2[B-](F)(F)[N+]2=C(NCc4cc(OC)ccc4OC)C=CC2=C3c2ccc(N)cc2)nn1` (stereo not drawn) [MK181-3], in series [1], the “λmax Absorp.” value is on record as 473 nm and the “λmax Emission” value is reported as 565 nm. For the same molecule, the “φ (quantum yield)” value in series [2] stood at 0.36%.

In the case of `COc1ccc(OC)c(CNC2=[N+]3C(=C(c4ccc(N)cc4)c4ccc(-n5cc(C6CC6)nn5)n4[B-]3(F)F)C=C2)c1` [MK181-4], in series [1], the “λmax Absorp.” value is 474 nm and the “λmax Emission” value stood at 566 nm. Besides, in series [2], the “φ (quantum yield)” value was 0.28%.

For the molecule `COc1ccc(OC)c(CNC2=[N+]3C(=C(c4ccc(N)cc4)c4ccc(-n5cc(C6CCCC6)nn5)n4[B-]3(F)F)C=C2)c1` [MK181-5], in series [1], the “λmax Absorp.” value was found to be 475 nm and the “λmax Emission” value was found to be 563 nm. The “φ (quantum yield)” value in series [2] amounted to 0.43%.

In the case of `COc1ccc(OC)c(CNC2=[N+]3C(=C(c4ccc(N)cc4)c4ccc(-n5cc(CC6CCCCC6)nn5)n4[B-]3(F)F)C=C2)c1` [MK181-8], in series [1], the “λmax Absorp.” value was found to be 474 nm and the “λmax Emission” value is listed as 565 nm. In series [2], the “φ (quantum yield)” value was 0.33%.

With `COc1ccc(OC)c(CNC2=[N+]3C(=C(c4ccc(N)cc4)c4ccc(-n5cc(CN(C)Cc6ccccc6)nn5)n4[B-]3(F)F)C=C2)c1` [MK181-18], in series [1], the “λmax Absorp.” value came out at 473 nm and the “λmax Emission” value came out at 563 nm. In addition, the “φ (quantum yield)” value in series [2] turned out to be 0.52%.

As for `COc1ccc(OC)c(CNC2=[N+]3C(=C(c4ccc(N)cc4)c4ccc(-n5cc(CCc6ccccc6)nn5)n4[B-]3(F)F)C=C2)c1` [MK181-19], in series [1], the “λmax Absorp.” value amounted to 474 nm and the “λmax Emission” value is reported as 564 nm. Also, the “φ (quantum yield)” value in series [2] is given as 0.85%.

On to `COc1ccc(OC)c(CNC2=[N+]3C(=C(c4ccc(N)cc4)c4ccc(-n5cc(CC(C)C)nn5)n4[B-]3(F)F)C=C2)c1` [MK181-43], for which, in series [1], the “λmax Absorp.” value turned out to be 475 nm and the “λmax Emission” value is reported as 566 nm. The “φ (quantum yield)” value in series [2] is given as 0.37%.

With `CCCc1cn(-c2ccc3n2[B-](F)(F)[N+]2=C(NCc4cc(OC)ccc4OC)C=CC2=C3c2ccc(N)cc2)nn1` [MK181-48], in series [1], the “λmax Absorp.” value is listed as 473 nm and the “λmax Emission” value came out at 563 nm. Also, the “φ (quantum yield)” value in series [2] is on record as 0.50%.

On to `CCCCCC(O)c1cn(-c2ccc3n2[B-](F)(F)[N+]2=C(NCc4cc(OC)ccc4OC)C=CC2=C3c2ccc(N)cc2)nn1` (stereo not drawn) [MK181-69], for which, in series [1], the “λmax Absorp.” value is 473 nm and the “λmax Emission” value is recorded as 563 nm. In addition, in series [2], the “φ (quantum yield)” value is on record as 0.86%.

As to `COc1ccc(OC)c(CNC2=[N+]3C(=C(c4ccc(N)cc4)c4ccc(-n5cc(CO)nn5)n4[B-]3(F)F)C=C2)c1` [MK181-70], in series [1], the “λmax Absorp.” value is recorded as 472 nm and the “λmax Emission” value worked out at 568 nm. Moreover, the “φ (quantum yield)” value in series [2] was found to be 0.88%.

For `CCCC(C)c1cn(-c2ccc3n2[B-](F)(F)[N+]2=C(N(C)Cc4ccccc4)C=CC2=C3c2ccc(N)cc2)nn1` (stereo not drawn) [MK195-3], in series [1], the “λmax Absorp.” value was 476 nm and the “λmax Emission” value is on record as 564 nm. Further, the “φ (quantum yield)” value in series [2] is listed as 0.46%.

In the case of `CN(Cc1ccccc1)C1=[N+]2C(=C(c3ccc(N)cc3)c3ccc(-n4cc(C5CC5)nn4)n3[B-]2(F)F)C=C1` [MK195-4], in series [1], the “λmax Absorp.” value came to 476 nm and the “λmax Emission” value worked out at 566 nm. The “φ (quantum yield)” value in series [2] amounted to 0.34%.

For the molecule `CN(Cc1ccccc1)C1=[N+]2C(=C(c3ccc(N)cc3)c3ccc(-n4cc(C5CCCC5)nn4)n3[B-]2(F)F)C=C1` [MK195-5], in series [1], the “λmax Absorp.” value turned out to be 477 nm and the “λmax Emission” value is on record as 579 nm. The “φ (quantum yield)” value in series [2] stood at 0.39%.

`CN(Cc1ccccc1)C1=[N+]2C(=C(c3ccc(N)cc3)c3ccc(-n4cc(CC5CCCCC5)nn4)n3[B-]2(F)F)C=C1` [MK195-8]: in series [1], the “λmax Absorp.” value is listed as 476 nm and the “λmax Emission” value worked out at 579 nm. Moreover, in series [2], the “φ (quantum yield)” value turned out to be 0.36%.

Regarding `CN(Cc1ccccc1)Cc1cn(-c2ccc3n2[B-](F)(F)[N+]2=C(N(C)Cc4ccccc4)C=CC2=C3c2ccc(N)cc2)nn1` [MK195-18], in series [1], the “λmax Absorp.” value is recorded as 475 nm and the “λmax Emission” value is recorded as 580 nm. Besides, the “φ (quantum yield)” value in series [2] is reported as 0.52%.

Regarding `CN(Cc1ccccc1)C1=[N+]2C(=C(c3ccc(N)cc3)c3ccc(-n4cc(CCc5ccccc5)nn4)n3[B-]2(F)F)C=C1` [MK195-19], in series [1], the “λmax Absorp.” value amounted to 477 nm and the “λmax Emission” value came to 582 nm. In addition, the “φ (quantum yield)” value in series [2] worked out at 0.27%.

For `CC(C)Cc1cn(-c2ccc3n2[B-](F)(F)[N+]2=C(N(C)Cc4ccccc4)C=CC2=C3c2ccc(N)cc2)nn1` [MK195-43], in series [1], the “λmax Absorp.” value is reported as 475 nm and the “λmax Emission” value was determined as 571 nm. Moreover, in series [2], the “φ (quantum yield)” value is listed as 0.41%.

With `CCCc1cn(-c2ccc3n2[B-](F)(F)[N+]2=C(N(C)Cc4ccccc4)C=CC2=C3c2ccc(N)cc2)nn1` [MK195-48], in series [1], the “λmax Absorp.” value is 476 nm and the “λmax Emission” value came out at 584 nm. The “φ (quantum yield)” value in series [2] worked out at 0.32%.

For `CCCCCC(O)c1cn(-c2ccc3n2[B-](F)(F)[N+]2=C(N(C)Cc4ccccc4)C=CC2=C3c2ccc(N)cc2)nn1` (stereo not drawn) [MK195-69], in series [1], the “λmax Absorp.” value is 476 nm and the “λmax Emission” value came out at 591 nm. The “φ (quantum yield)” value in series [2] is reported as 0.28%.

Consider `CN(Cc1ccccc1)C1=[N+]2C(=C(c3ccc(N)cc3)c3ccc(-n4cc(CO)nn4)n3[B-]2(F)F)C=C1` [MK195-70], for which, in series [1], the “λmax Absorp.” value was determined as 475 nm and the “λmax Emission” value is listed as 592 nm. The “φ (quantum yield)” value in series [2] worked out at 0.27%.

With `CCCC(C)c1cn(-c2ccc3n2[B-](F)(F)[N+]2=C(N4CCCC4)C=CC2=C3c2ccc(N)cc2)nn1` (stereo not drawn) [MK215-3], in series [1], the “λmax Absorp.” value was determined as 471 nm and the “λmax Emission” value was found to be 567 nm. For the same molecule, the “φ (quantum yield)” value in series [2] is listed as 0.26%.

`Nc1ccc(C2=C3C=CC(N4CCCC4)=[N+]3[B-](F)(F)n3c2ccc3-n2cc(C3CC3)nn2)cc1` [MK215-4]: in series [1], the “λmax Absorp.” value is reported as 470 nm and the “λmax Emission” value is 576 nm. The “φ (quantum yield)” value in series [2] is 0.29%.

For `Nc1ccc(C2=C3C=CC(N4CCCC4)=[N+]3[B-](F)(F)n3c2ccc3-n2cc(C3CCCC3)nn2)cc1` [MK215-5], in series [1], the “λmax Absorp.” value is 471 nm and the “λmax Emission” value came to 568 nm. Besides, the “φ (quantum yield)” value in series [2] was 0.53%.
